Results: PMC8066339, “Optimization of 2-Acylaminocycloalkylthiophene Derivatives for Activity against Staphylococcus aureus RnpA” (Antibiotics, 2021)

Experiments:
MTT cytotoxicity testing = settings: human, HEP G2 cells (human liver epithelial cells)
Description: For the scaffold to have translational significance, it must be non-toxic to human cells. Accordingly, an initial assessment of toxicity was performed using human liver epithelial (HEP G2) cells via a 3-(4,5-dimethylthiazol-2-yl)-2,5-diphenyltetrazolium bromide (MTT) assay in the presence of up to 400 µM of each analog. […] Viability of 70% was used as the cut-off criteria for toxicity (Figure 4, dashed line), according to ISO guidelines, as described in Materials and Methods.
Human liver epithelial cells (HEP G2) were cultured in Dulbecco’s Modified Eagle Medium (DMEM; Fisher Scientific, Hampton, NH) supplemented with 10% heat inactivated fetal bovine serum (FBS; Corning Life Sciences) and 1% penicillin/streptomycin (Thermofisher Scientific). Cells were incubated at 37 °C with 5% CO2 in Nunc (Roskilde, Denmark) tissue culture flasks. Cells were grown in monolayers until exceeding 70% confluency, removed with 0.25% trypsin (Fisher Scientific), resuspended in fresh medium, and used to seed approximately 2.5 × 10^5 cells/mL into each well of a 96 well tissue culture microplate (Nunc) containing 200 µL of fresh medium. Cytotoxicity testing was conducted according to the guidelines of the International Organization for Standardization (ISO) 10993-5:2009. After 24 h of incubation, the cell media was removed, and adherent cells were washed with 1× phosphate buffered saline (PBS). Cell media was supplemented with 5% per volume of compound at final concentrations from 12.5 µM to 400 µM and incubated 20–24 h at 37 °C with 5% CO2. After incubation, medium supplemented with compound was removed from the wells and replaced with 100 µL of fresh culture medium. Then, 10 µL of 12 mM (3-(4,5-dimethylthiazol-2-yl)-2,5-diphenyltetrazolium bromide (MTT) stock reagent (CyQUANT MTT cell proliferation kit; Thermofisher Scientific) was added to each well. After labeling the cells with the MTT reagent, all but 25 µL of medium was removed from the wells, and 50 µL of DMSO was added to each well and mixed thoroughly and cells were incubated at 37 °C with 5% CO2 for 10 min. After incubation, wells were mixed again and using a SPECTRAmax5 microplate reader, absorbance was read at 540 nm. Cells were treated with 125 µg/mL mitomycin C (Fisher Scientific) to serve as a positive control and 2% DMSO as a negative control. […] All compounds were tested in two independent experiments in triplicate and cell viability was expressed as a percent of the negative control.

[1] = test system: S. aureus clinical isolate USA300; experiment: Murine corneal infection (keratitis) model; type: in vivo, Staphylococcus aureus; settings: BALB/c mice, 50 µM topical 5 µL every 6 h for 48 h; not statistically different (t-test)
Description: Corneal infections were induced by inoculating corneal scratches with S. aureus, eyes were treated with RNP0012 6 h later and every 6 h thereafter for 48 h and bacterial burden was enumerated.
In vivo efficacy studies utilizing a murine model of corneal S. aureus infection were performed as previously described. Female BALB/c mice four to six weeks of age were acquired from Charles River ([…], MA, USA) and housed according to the approved University of Rochester Medical Center Council on Animal Research (UCAR) protocol. S. aureus clinical isolate USA300 was grown overnight on both MH agar and MH broth at 37 °C. Broth cultures were centrifuged at 2000× g for 10 min at 4 °C and the pellet was resuspended in 1× sterile PBS in a volume equivalent to the starting volume. The mice were anesthetized with 100 mg kg^−1 ketamine (Par Pharmaceutica; Chestnut Ridge, NY, USA) and 10 mg kg^−1 xylazine (Akorn, Inc.; Lake Forest, IL, USA) and 0.5% proparacaine (Akorn, Inc.) was applied to the right eye of each mouse. Excess proparacaine was blotted from the ocular surface. Using a 27-gauge needle, inoculated with a single colony of S. aureus USA300, three 2 mm scratches were made across the right cornea. […] The animals were euthanized after 48 h and whole eyes were excised, homogenized, and plated to quantitate viable S. aureus colonies present. […]

## O=C(Nc1ccc(C(F)(F)F)cc1)c1c(NC(=O)C(F)(F)F)sc2c1CCCCC2 [RNP0012]
MTT cytotoxicity testing
  viability at 50 µM: 68%
[1]
  CFU reduction in comparison to vehicle treated animals: 1.2 log CFU
